Measured values published in publication PMC10302202, “The Finding of New In Vivo Metabolite Triptorelin (5-10) in Human Urine Using Liquid Chromatography Coupled with Ion Trap/Time-of-Flight Mass Spectrometry with Dimethyl Sulfoxide Additives in the Mobile Phase” (Molecules, 2023).
One block for each compound: values may come before it. Non-standard residues stand in square brackets, D forms with d. Residues, ends and D or L forms follow the SMILES beside them.

Experiments:
[1] = Urine levels of triptorelin and triptorelin (5-10) in patients after triptorelin administration (LC/MS-IT-TOF); format: in vivo, human; conditions: for detection level in urine, 3 h / detection level in urine, 6 h: first time, prostate cancer patient
Experimental: The column compartment temperature was set at 30 °C. The autosampler unit temperature was set at 10 °C. […] The spray voltage was set at 4 kV.
A further urine sample was collected one month later.
The injection volume was 30 μL. The total runtime is 9 min.

[2] = Urine levels of leuprorelin and leuprorelin (5-9) in patients after leuprorelin administration (LC/MS-IT-TOF); conditions: SPE; for detection level in urine, 3 h / detection level in urine, 6 h: first time, prostate cancer patient
Experimental: (§1) Sample analysis was carried out by using the LCMS-IT-TOF Prominence system (Shimadzu, Japan) and LC model UPLC 8040 [18]. The analytical column was a Poroshell 120 EC-C18 (2.1 mm × 150 mm, 2.7 μm particle) coupled with a guard column (SecurityGuard^TM C18, 3.0 mm). The column compartment temperature was set at 30 °C. The autosampler unit temperature was set at 10 °C. Dry gas was set at 47 kPa, and nebulizer gas was set at 1.5 L/min. The curved desolvation line (CDL) and heating block temperature were set at 250 °C. The spray voltage was set at 4 kV.
(§2) Urine samples were collected at the Division of Urology, Department of Surgery, Faculty of Medicine, Ramathibodi Hospital, Bangkok, Thailand. […] Urine samples were collected at 0.0, 3.0, and 6.0 h from 5 patients who had received either 11.25 mg of Enantone® L.P (leuprorelin acetate) or Diphereline® P.R. (triptorelin pamoate) intramuscularly for the first time.
(§3) In this study, 200 mL of sodium phosphate buffer (pH 6.8; 0.8 M) was added to a 3.0 mL aliquot of urine. The batch of samples was centrifuged at 5000 rpm for 5 min at 5 °C. The supernatant from each tube was transferred to a new set of protein LoBind® tubes, Eppendorf (Melbourne, Australia) and 20 μL of ISTD (see Section 4.3) was added to each sample [17]. SPE cartridges (see Section 4.1) were activated with 2 mL of methanol followed by 2 mL of ultra-pure water. The supernatants were slowly loaded onto the SPE cartridges (flow rate is approximately 1.0 mL/min) and washed with 1 mL of water, followed by 1 mL of freshly prepared 10% v/v aqueous methanol; then, all washing solutions were removed and dried using a vacuum pump. Elution was performed using freshly prepared 10% v/v formic acid in methanol. Eluates were evaporated at 45 °C to approximately 10 μL in a vacuum centrifuge. The residues were reconstituted in 50 μL of freshly prepared 0.1% formic acid in water.
(§4) The mobile phases were 0.1% formic acid in water with or without 1% DMSO (mobile phase A) and acetonitrile (mobile phase B) at a flow rate of 0.3 mL/min. The mobile phase gradient program was as follows: 0.0–2.0 min, 20 to 30% B; 2.0–4.0 min, 30 to 45% B; 4.0–5.0 min, 45 to 100% B; 5.0–6.0 min, hold at 100% B; 6.0–7.0 min, 100% to 20% B; and 7.0–9.0 min hold at 20% B (column equilibration). The injection volume was 30 μL. The total runtime is 9 min.
(§5) Mass spectrometric analysis was employed both in the full-scan mode and MS-MS mode. Data analysis was performed using 2 product ion transitions for each compound. LC/MS-IT-TOF mass spectrometric variables, including the m/z of product ions, ion accumulation time, and collision energy (CE), were optimized for maximum abundance for each ion transition. Ionization was performed using ESI in the positive ion mode at 3500 V. The ion accumulation time was 10 milliseconds, and the isolation width was 1.5 Dalton.
(§6) The mean and standard deviation of the concentration of leuprorelin, leuprorelin (5-9), triptorelin, and triptorelin (5-10) from 5 patients were used for statistical analysis.

clinical = conditions: human, in vivo, im, 11.25 mg, detection level in urine, mean
Experimental: as §1, §2, §3, §4, §5, §6

[3] = in vivo; cited from earlier work

Compound: CCNC(=O)[C@@H]1CCCN1C(=O)[C@H](CCCNC(=N)N)NC(=O)[C@H](CC(C)C)NC(=O)[C@@H](CC(C)C)NC(=O)[C@@H](N)Cc1ccc(O)cc1 [Leuprorelin (5-9), leuprorelin (5-9)] (H-Y[dL]LRP-NHEt)
- detection level in urine, 3 h, mean ([2]; mean of n = 5 patients, urine 3 h after 11.25 mg Enantone L.P (leuprorelin acetate) intramuscularly): 74.8 ng/mL
- detection level in urine, 6 h, mean ([2]; mean of n = 5 patients, urine 6 h after 11.25 mg Enantone L.P (leuprorelin acetate) intramuscularly): 78.9 ng/mL
- detection level in urine, 3 h ([2]; patient 1, urine 3 h after 11.25 mg Enantone L.P (leuprorelin acetate) intramuscularly): 68.0 ng/mL
- detection level in urine, 6 h ([2]; patient 1, urine 6 h after 11.25 mg Enantone L.P (leuprorelin acetate) intramuscularly): 73.1 ng/mL
- detection level in urine, 3 h ([2]; patient 2, urine 3 h after 11.25 mg Enantone L.P (leuprorelin acetate) intramuscularly): 106.9 ng/mL
- detection level in urine, 6 h ([2]; patient 2, urine 6 h after 11.25 mg Enantone L.P (leuprorelin acetate) intramuscularly): 18.7 ng/mL
- detection level in urine, 3 h ([2]; patient 3, urine 3 h after 11.25 mg Enantone L.P (leuprorelin acetate) intramuscularly): 162.9 ng/mL
- detection level in urine, 6 h ([2]; patient 3, urine 6 h after 11.25 mg Enantone L.P (leuprorelin acetate) intramuscularly): 100.4 ng/mL
- detection level in urine, 3 h ([2]; patient 4, urine 3 h after 11.25 mg Enantone L.P (leuprorelin acetate) intramuscularly): 16.7 ng/mL
- detection level in urine, 6 h ([2]; patient 4, urine 6 h after 11.25 mg Enantone L.P (leuprorelin acetate) intramuscularly): 23.8 ng/mL
- detection level in urine, 3 h ([2]; patient 5, urine 3 h after 11.25 mg Enantone L.P (leuprorelin acetate) intramuscularly): 19.3 ng/mL
- detection level in urine, 6 h ([2]; patient 5, urine 6 h after 11.25 mg Enantone L.P (leuprorelin acetate) intramuscularly): 178.7 ng/mL

Compound: CC(C)C[C@H](NC(=O)[C@@H](Cc1c[nH]c2ccccc12)NC(=O)[C@H](Cc1ccc(O)cc1)NC(=O)[C@H](CO)NC(=O)[C@H](Cc1c[nH]c2ccccc12)NC(=O)[C@H](Cc1c[nH]cn1)NC(=O)[C@@H]1CCC(=O)N1)C(=O)N[C@@H](CCCNC(=N)N)C(=O)N1CCC[C@H]1C(=O)NCC(N)=O [Triptorelin, triptorelin]
- level at 3 h ([1]; human, urine, im, 11.25 mg, mean of n = 5 patients, urine 3 h after 11.25 mg Diphereline P.R. (triptorelin pamoate) intramuscularly, SPE, LC/MS-IT-TOF, read-out: detection level in urine, 3 h, mean): 0.0641 µg/mL
- level at 6 h ([1]; human, urine, im, 11.25 mg, mean of n = 5 patients, urine 6 h after 11.25 mg Diphereline P.R. (triptorelin pamoate) intramuscularly, SPE, LC/MS-IT-TOF, read-out: detection level in urine, 6 h, mean): 0.0626 µg/mL

Compound: GnRH: endogenous 10-amino-acid peptide synthesized and produced in the hypothalamus
- half-life [3]: 2 min

Now from value to compound:

- detection level in urine, 1 month, mean ([1]; mean line, n = 5 for triptorelin, n = 3 for triptorelin (5-10), urine 1 month after 11.25 mg Diphereline P.R. (triptorelin pamoate) intramuscularly, ND = not detectable): 0.7 ng/mL
- detection level in urine, 3 h, mean ([1]; mean of n = 5 patients, urine 3 h after 11.25 mg Diphereline P.R. (triptorelin pamoate) intramuscularly, SPE, LC/MS-IT-TOF): 105.5 ng/mL
- detection level in urine, 1 month ([1]; patient 1, urine 1 month after 11.25 mg Diphereline P.R. (triptorelin pamoate) intramuscularly, ND = not detectable, SPE, LC/MS-IT-TOF): 1.2 ng/mL
- detection level in urine, 3 h ([1]; patient 1, urine 3 h after 11.25 mg Diphereline P.R. (triptorelin pamoate) intramuscularly, SPE, LC/MS-IT-TOF): 84.3 ng/mL
- detection level in urine, 6 h ([1]; patient 1, urine 6 h after 11.25 mg Diphereline P.R. (triptorelin pamoate) intramuscularly, SPE, LC/MS-IT-TOF): 24.7 ng/mL
- detection level in urine, 1 month ([1]; patient 2, urine 1 month after 11.25 mg Diphereline P.R. (triptorelin pamoate) intramuscularly, ND = not detectable, SPE, LC/MS-IT-TOF): 0.3 ng/mL
- detection level in urine, 3 h ([1]; patient 2, urine 3 h after 11.25 mg Diphereline P.R. (triptorelin pamoate) intramuscularly, SPE, LC/MS-IT-TOF): 25.3 ng/mL
- detection level in urine, 6 h ([1]; patient 2, urine 6 h after 11.25 mg Diphereline P.R. (triptorelin pamoate) intramuscularly, SPE, LC/MS-IT-TOF): 43.5 ng/mL
- detection level in urine, 3 h ([1]; patient 3, urine 3 h after 11.25 mg Diphereline P.R. (triptorelin pamoate) intramuscularly, SPE, LC/MS-IT-TOF): 12.8 ng/mL
- detection level in urine, 6 h ([1]; patient 3, urine 6 h after 11.25 mg Diphereline P.R. (triptorelin pamoate) intramuscularly, SPE, LC/MS-IT-TOF): 3.2 ng/mL
- detection level in urine, 3 h ([1]; patient 4, urine 3 h after 11.25 mg Diphereline P.R. (triptorelin pamoate) intramuscularly, SPE, LC/MS-IT-TOF): 225.7 ng/mL
- detection level in urine, 6 h ([1]; patient 4, urine 6 h after 11.25 mg Diphereline P.R. (triptorelin pamoate) intramuscularly, SPE, LC/MS-IT-TOF): 250.6 ng/mL
- detection level in urine, 1 month ([1]; patient 5, urine 1 month after 11.25 mg Diphereline P.R. (triptorelin pamoate) intramuscularly, ND = not detectable, SPE, LC/MS-IT-TOF): 0.6 ng/mL
- detection level in urine, 3 h ([1]; patient 5, urine 3 h after 11.25 mg Diphereline P.R. (triptorelin pamoate) intramuscularly, SPE, LC/MS-IT-TOF): 179.1 ng/mL
- detection level in urine, 6 h ([1]; patient 5, urine 6 h after 11.25 mg Diphereline P.R. (triptorelin pamoate) intramuscularly, SPE, LC/MS-IT-TOF): 202.0 ng/mL
Compound: CC(C)C[C@H](NC(=O)[C@@H](Cc1c[nH]c2ccccc12)NC(=O)[C@@H](N)Cc1ccc(O)cc1)C(=O)N[C@@H](CCCNC(=N)N)C(=O)N1CCC[C@H]1C(=O)NCC(N)=O [Triptorelin (5-10), triptorelin (5-10)] (H-Y[dW]LRPG-NH2)

- level at 3 h (clinical; 3 h): 0.065 µg/mL
- level at 6 h (clinical; 6 h): 0.106 µg/mL
Compound: CCNC(=O)[C@@H]1CCCN1C(=O)[C@H](CCCNC(=N)N)NC(=O)[C@H](CC(C)C)NC(=O)[C@@H](CC(C)C)NC(=O)[C@H](Cc1ccc(O)cc1)NC(=O)[C@H](CO)NC(=O)[C@H](Cc1c[nH]c2ccccc12)NC(=O)[C@H](Cc1c[nH]cn1)NC(=O)[C@@H]1CCC(=O)N1 [Leuprorelin, leuprorelin]
